The record followed here is ChEMBL document CHEMBL5625223 (Eur J Med Chem, 2023).

The target in experiment [1] is T1, 5-hydroxytryptamine receptor 2A (Homo sapiens, UniProt P28223). Description: Binding affinity to 5HT2A receptor (unknown origin) at 10 uM relative to control.
In experiment [2] the target is T2, 5-hydroxytryptamine receptor 2C (Homo sapiens) (UniProt P28335).
T2 sequence (whole entry): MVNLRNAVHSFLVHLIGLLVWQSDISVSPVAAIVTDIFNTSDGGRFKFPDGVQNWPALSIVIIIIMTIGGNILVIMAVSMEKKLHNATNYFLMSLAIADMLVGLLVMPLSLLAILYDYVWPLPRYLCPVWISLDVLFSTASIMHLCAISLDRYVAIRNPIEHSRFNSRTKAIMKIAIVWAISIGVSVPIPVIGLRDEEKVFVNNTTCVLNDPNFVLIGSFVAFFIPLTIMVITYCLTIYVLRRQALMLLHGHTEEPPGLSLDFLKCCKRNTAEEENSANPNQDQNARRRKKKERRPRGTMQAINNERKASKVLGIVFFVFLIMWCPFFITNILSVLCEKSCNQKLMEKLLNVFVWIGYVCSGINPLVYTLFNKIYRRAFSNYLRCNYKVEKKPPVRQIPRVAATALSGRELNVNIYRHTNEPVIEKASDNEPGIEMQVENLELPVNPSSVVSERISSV
Description: Binding affinity to 5HT2C receptor (unknown origin) at 10 uM relative to control.

In experiment [3] the target is T3, 5-hydroxytryptamine receptor 2B (Homo sapiens, UniProt P41595). In words: Binding affinity to 5HT2B receptor (unknown origin) assessed as inhibition constant.
T3 sequence (P41595 whole entry): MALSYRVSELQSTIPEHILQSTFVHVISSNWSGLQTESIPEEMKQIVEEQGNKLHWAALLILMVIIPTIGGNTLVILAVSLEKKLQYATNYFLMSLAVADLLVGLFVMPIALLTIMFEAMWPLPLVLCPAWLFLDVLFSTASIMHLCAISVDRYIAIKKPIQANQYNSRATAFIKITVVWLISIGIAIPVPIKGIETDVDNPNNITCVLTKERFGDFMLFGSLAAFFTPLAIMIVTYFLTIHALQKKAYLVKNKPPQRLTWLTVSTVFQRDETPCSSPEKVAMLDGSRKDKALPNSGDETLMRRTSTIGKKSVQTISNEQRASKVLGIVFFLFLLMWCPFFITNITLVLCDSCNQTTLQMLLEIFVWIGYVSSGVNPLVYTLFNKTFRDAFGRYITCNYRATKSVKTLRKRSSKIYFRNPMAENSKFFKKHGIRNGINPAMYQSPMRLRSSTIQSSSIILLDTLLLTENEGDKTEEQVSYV
Experiment [4] deals with Adenosine receptor A2a (Homo sapiens) (UniProt P29274). In words: Displacement of […] from human A2AR expressed in HEK cells at 10 uM relative to control. It is filed as cell-based.
Sequence of Adenosine receptor A2a (Homo sapiens) (P29274 whole entry): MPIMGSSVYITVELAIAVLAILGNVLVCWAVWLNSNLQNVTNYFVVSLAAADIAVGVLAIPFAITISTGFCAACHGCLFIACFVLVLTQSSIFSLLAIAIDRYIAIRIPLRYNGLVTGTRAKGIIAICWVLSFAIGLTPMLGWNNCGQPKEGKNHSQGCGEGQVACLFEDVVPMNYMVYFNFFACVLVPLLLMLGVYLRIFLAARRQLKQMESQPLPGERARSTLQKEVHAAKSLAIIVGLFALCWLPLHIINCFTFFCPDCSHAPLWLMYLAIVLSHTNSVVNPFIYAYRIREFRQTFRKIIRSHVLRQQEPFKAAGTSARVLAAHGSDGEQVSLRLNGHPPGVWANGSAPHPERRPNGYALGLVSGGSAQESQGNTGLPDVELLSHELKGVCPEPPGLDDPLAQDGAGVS
The target of a further experiment is T4, Adenosine receptor A1 (Homo sapiens, UniProt P30542).
T4 sequence (P30542 whole entry): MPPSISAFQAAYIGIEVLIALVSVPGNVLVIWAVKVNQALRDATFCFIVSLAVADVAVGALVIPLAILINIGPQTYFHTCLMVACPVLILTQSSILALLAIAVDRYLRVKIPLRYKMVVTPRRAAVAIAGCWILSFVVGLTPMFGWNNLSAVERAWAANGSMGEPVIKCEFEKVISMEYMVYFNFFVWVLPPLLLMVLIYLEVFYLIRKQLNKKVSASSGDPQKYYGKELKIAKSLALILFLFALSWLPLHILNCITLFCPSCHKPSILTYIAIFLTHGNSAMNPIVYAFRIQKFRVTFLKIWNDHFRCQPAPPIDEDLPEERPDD
In words: Displacement of […] from human A1AR expressed in Flp-In-T-REx-293 cells assessed as inhibition constant. It is filed as cell-based.

For experiment [5], the target named is 5-hydroxytryptamine receptor 1D (Homo sapiens, UniProt P28221). Description: Binding affinity to 5HT1D receptor (unknown origin) assessed as inhibition constant.
Sequence of 5-hydroxytryptamine receptor 1D (P28221 whole entry): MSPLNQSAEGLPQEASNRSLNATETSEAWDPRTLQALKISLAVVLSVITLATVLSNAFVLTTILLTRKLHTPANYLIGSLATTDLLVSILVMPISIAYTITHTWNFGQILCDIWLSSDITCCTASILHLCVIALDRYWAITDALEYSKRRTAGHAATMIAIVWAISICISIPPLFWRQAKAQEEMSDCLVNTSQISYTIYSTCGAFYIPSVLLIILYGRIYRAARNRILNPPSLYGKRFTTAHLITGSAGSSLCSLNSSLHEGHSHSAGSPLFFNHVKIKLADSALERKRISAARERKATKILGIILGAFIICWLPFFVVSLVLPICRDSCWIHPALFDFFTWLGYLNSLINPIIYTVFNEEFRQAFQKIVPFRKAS
Experiment [6] deals with T5, Alpha-2C adrenergic receptor (Homo sapiens, UniProt P18825).
T5 sequence (P18825 whole entry): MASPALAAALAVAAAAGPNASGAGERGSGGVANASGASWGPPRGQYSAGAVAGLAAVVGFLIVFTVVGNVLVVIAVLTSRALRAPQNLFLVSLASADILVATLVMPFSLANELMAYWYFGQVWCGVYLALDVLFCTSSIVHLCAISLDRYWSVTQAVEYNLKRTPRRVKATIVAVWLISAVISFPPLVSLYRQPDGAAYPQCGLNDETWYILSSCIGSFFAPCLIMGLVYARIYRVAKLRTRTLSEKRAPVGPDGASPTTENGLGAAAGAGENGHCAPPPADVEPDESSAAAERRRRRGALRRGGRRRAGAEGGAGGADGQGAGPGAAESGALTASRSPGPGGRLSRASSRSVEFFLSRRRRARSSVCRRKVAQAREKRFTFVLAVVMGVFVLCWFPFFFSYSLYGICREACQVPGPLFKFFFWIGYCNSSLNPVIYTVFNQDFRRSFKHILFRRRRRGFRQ
Description: Binding affinity to alpha2C receptor (unknown origin) assessed as inhibition constant.

For experiment [7], the target named is T1, 5-hydroxytryptamine receptor 2A. In words: Displacement of [3H]ketanserin from human 5-HT2A receptor expressed in HEK293 cells at 10 uM incubated for 1 hr. Format: cell-based.
The next experiment addresses Mu-type opioid receptor (Homo sapiens, UniProt P35372). Description: Binding affinity to MOR (unknown origin) assessed as inhibition constant.
The target of another experiment is T6, Adenosine receptor A3 (Homo sapiens, UniProt P0DMS8).
T6 sequence (P0DMS8 whole entry): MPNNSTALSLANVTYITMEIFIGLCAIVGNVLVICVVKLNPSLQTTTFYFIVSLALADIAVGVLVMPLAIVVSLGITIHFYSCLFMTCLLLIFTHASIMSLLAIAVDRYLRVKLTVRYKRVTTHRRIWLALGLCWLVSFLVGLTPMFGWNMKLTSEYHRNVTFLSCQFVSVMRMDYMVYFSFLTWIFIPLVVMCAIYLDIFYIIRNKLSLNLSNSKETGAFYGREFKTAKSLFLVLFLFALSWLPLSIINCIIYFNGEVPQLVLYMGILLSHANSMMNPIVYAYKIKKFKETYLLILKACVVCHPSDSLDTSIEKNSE
In words: Displacement of […] from human A3AR expressed in HEK cells assessed as inhibition constant. It is filed as cell-based.

Experiment [8] concerns the target T7, Adenosine receptor A1 (Homo sapiens) (UniProt P30542).
T7 sequence (whole entry): T4 sequence (P30542 whole entry)
Description: Displacement of […] from human A1AR expressed in Flp-In-T-REx-293 cells at 1 uM relative to control. The note with it: filed as agonist. It is filed as cell-based.

The target in experiment [9] is T3, 5-hydroxytryptamine receptor 2B. In words: Displacement of [3H]-LSD from human 5-HT2B receptor expressed in HEK cells at 10 uM incubated for 1 hr relative to control. It is filed as cell-based. A general note: In a radioligand displacement assay an active substance lowers the binding of a labelled ligand.
The target is the same in experiment [10]. Description: Displacement of [3H]-LSD from human 5-HT2B receptor expressed in HEK cells assessed as inhibition constant incubated for 1 hr. It is filed as cell-based.
Experiment [11] addresses T8, Adenosine receptor A3 (Homo sapiens) (UniProt P0DMS8).
T8 sequence (whole entry): T6 sequence (P0DMS8 whole entry)
Description: Displacement of […] from human A3AR expressed in HEK cells at 10 uM relative to control. It is filed as cell-based.

In experiment [12] the target is T2, 5-hydroxytryptamine receptor 2C (Homo sapiens). In words: Displacement of [3H]-Mesulergine from human 5-HT2C expressed in Flp-In-T-REx-293 cells at 10 uM incubated for 1 hr relative to control. It is filed as cell-based.
Experiment [13] addresses T1, 5-hydroxytryptamine receptor 2A. Description: Displacement of [3H]ketanserin from human 5-HT2A receptor expressed in HEK293 cells at 10 uM incubated for 1 hr relative to control. Format: cell-based.
Experiment [14] concerns the target T9, 5-hydroxytryptamine receptor 2C (Homo sapiens, UniProt P28335).
T9 sequence (P28335 whole entry): T2 sequence (whole entry)
Description: Displacement of [3H]-Mesulergine from human 5-HT2C expressed in Flp-In-T-REx-293 cells assessed as inhibition constant incubated for 1 hr. The note with it: read-out: Ki. It is filed as cell-based.

Experiment [15] has as its target Beta-3 adrenergic receptor (Homo sapiens, UniProt P13945). Description: Binding affinity to beta3 adrenergic receptor (unknown origin) assessed as inhibition constant.
For experiment [16], the target named is Sodium-dependent dopamine transporter (Homo sapiens, UniProt Q01959). In words: Binding affinity to DAT (unknown origin) assessed as inhibition constant.
Sequence of Sodium-dependent dopamine transporter (Q01959 whole entry): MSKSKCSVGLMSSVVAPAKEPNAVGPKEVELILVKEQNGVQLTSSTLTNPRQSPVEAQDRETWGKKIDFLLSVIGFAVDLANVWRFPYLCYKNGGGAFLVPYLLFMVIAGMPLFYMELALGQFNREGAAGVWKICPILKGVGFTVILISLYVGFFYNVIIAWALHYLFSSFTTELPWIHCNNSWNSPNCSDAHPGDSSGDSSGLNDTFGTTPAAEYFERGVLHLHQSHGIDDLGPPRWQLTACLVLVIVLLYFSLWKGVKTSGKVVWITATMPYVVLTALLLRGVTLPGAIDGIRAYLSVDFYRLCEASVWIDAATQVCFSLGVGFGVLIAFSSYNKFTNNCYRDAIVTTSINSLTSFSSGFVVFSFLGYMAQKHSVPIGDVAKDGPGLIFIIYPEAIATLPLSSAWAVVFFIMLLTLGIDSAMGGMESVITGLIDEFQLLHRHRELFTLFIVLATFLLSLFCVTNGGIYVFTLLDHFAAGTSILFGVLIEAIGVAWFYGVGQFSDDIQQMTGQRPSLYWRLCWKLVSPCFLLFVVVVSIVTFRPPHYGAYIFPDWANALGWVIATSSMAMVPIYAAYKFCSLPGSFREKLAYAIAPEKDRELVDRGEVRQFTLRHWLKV

T1 sequence (P28223 whole entry): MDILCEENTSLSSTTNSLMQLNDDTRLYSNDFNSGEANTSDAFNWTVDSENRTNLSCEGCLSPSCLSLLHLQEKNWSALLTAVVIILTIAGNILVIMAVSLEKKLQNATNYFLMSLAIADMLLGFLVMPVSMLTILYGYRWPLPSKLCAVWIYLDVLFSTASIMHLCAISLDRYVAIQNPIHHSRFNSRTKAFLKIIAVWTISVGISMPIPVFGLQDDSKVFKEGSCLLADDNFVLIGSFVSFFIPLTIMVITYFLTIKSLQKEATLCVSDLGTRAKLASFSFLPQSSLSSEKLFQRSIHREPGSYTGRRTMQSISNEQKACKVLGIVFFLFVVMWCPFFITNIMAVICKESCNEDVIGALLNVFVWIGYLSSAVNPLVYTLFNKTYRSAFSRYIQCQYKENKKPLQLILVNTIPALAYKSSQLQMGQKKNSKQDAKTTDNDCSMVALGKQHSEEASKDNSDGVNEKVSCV
Sequence of Mu-type opioid receptor (P35372 whole entry): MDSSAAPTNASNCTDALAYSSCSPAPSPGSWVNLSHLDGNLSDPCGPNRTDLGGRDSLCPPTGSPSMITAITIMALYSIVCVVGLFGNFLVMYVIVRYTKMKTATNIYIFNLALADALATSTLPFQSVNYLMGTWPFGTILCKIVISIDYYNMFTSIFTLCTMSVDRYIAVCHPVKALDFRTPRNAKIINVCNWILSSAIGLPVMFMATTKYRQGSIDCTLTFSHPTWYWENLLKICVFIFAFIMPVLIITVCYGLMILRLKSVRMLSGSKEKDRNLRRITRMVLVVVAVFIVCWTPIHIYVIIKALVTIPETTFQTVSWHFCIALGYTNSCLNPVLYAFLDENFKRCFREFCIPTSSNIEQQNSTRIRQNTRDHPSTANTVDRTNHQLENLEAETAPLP
Sequence of Beta-3 adrenergic receptor (P13945 whole entry): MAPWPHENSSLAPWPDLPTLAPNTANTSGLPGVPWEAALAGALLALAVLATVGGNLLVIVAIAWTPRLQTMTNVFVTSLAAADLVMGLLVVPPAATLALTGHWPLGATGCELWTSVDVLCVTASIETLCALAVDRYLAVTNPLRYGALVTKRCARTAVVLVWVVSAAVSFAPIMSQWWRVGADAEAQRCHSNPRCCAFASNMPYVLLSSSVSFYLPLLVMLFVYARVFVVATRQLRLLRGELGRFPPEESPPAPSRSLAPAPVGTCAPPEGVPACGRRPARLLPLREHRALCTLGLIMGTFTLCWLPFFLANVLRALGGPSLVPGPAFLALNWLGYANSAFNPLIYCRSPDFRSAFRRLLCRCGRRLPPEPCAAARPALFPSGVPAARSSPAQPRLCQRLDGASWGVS

The Ki is a dissociation constant, usually derived from enzyme kinetics or from competition with a known ligand. As usually defined, the pKi is −log10 of the Ki, conventionally taken in molar units. As for `O[C@@H]1[C@H](O)[C@@H]2C[C@@H]2[C@H]1n1ccc2c(NC(C3CC3)C3CC3)nc(I)nc21`, the Activity in experiment [1] is 3%. Besides, in experiment [2], the Activity came to 30%. Besides, in experiment [3], the Ki stood at 1.3 µM and the pKi turned out to be 5.88.

As for `O[C@H]1[C@H](n2cnc3c(NC(C4CCCC4)C4CCCC4)nc(Cl)nc32)[C@H]2C[C@@]2(CCl)[C@H]1O`, the Activity in experiment [4] came to 36%. Further, the Ki on Adenosine receptor A1 came out at 0.529 µM; in experiment [5] it was 6.5 µM; in experiment [6], 2.5 µM; in experiment [7] it was 6.47 µM; at Mu-type opioid receptor it was 5.7 µM; at Adenosine receptor A3, 8.26 µM.

Regarding `Clc1nc(NCC2CC2)c2nc[nH]c2n1`, the Activity in experiment [8] was determined as 49%; in experiment [9] it was 29%.

Consider `O[C@H]1[C@H](n2cnc3c(NC(C4CCCC4)C4CCCC4)nc(Cl)nc32)[C@H]2C[C@@]2(CSc2ccccc2F)[C@H]1O`, for which the figures for the Ki (in [10]; at Mu-type opioid receptor) were 0.64 µM and 4.9 µM, respectively. Moreover, the Activity is -10% in experiment [4], 1% in experiment [11], 37% in experiment [12] and 36% in [13].

On to `COc1ccc(SC[C@@]23C[C@@H]2[C@@H](n2cnc4c(NC(C5CCCC5)C5CCCC5)nc(Cl)nc42)[C@H](O)[C@@H]3O)cc1OC`, for which the Ki in experiment [10] came out at 0.256 µM; in [14] it was 0.368 µM; in experiment [15], 2.1 µM. Moreover, the figures for the Activity in experiment [4], in [11] (filed as agonist) and in [13] were 19%, 78% and 25%, respectively.

As to `CNC(=O)[C@]12C[C@@H]1[C@@H](n1cnc3c(NC4CCCC4)nc(Cl)nc31)[C@H](O)[C@@H]2O`, the values for the Activity in [1] and in experiment [2] (filed as antagonist) were 0% and 44%, respectively. In addition, in experiment [3], the Ki worked out at 0.0782 µM.

Take `O[C@H]1[C@H](n2cnc3c(NC(C4CCCC4)C4CCCC4)nc(Cl)nc32)[C@H]2C[C@@]2(CF)[C@H]1O`: the Activity in experiment [4] was 21%; in [13] it was 36%. Also, the Ki turned out to be 0.58 µM in [14], 1.62 µM on Adenosine receptor A1, 7.2 µM at Adenosine receptor A3 and 7.9 µM in experiment [16].
